Data set [1] is described as follows: USP Dissolution Apparatus Method 2 (in vitro dissolution). The format is physicochemical. The following applies: 37° C. The procedure: (§1) • Particle Size Analysis. […] Dissolution obtained using the following method is also referred to herein as “in vitro dissolution”. The dissolution media used varied with the drug substance, and is specified below. The dissolution media was heated to 37° C. and degassed. Dissolution was performed utilizing three vessels per experiment. 11 to 12 mg of drug particles prepared according to the present invention was added to each vessel for dissolution analysis. Dissolution samples were filtered automatically into test tubes containing 0.1 mL of acetonitrile, mixed with a vortex mixer, filtered and analyzed by HPLC. Samples were taken at 2, 5, 10, 15, 20, 30, 60, and 120 minutes. At the 60 min. point the agitation speed was increased to 200 rpm to ensures complete dissolution by 120 minutes. The 120 min. reading is the infinity time reading and the infinity time is used to calculate the potency. […] Crystallinity was determined by X-ray diffraction methods using a Bruker D-8 automated diffractometer. • Atmospheric Freeze Drying (ATMFD). ATMFD was one method of solvent removal used in the following examples. Heat transfer fluid was circulated through the circulating jacket of the heat exchanger, that was used to cool the drying gas then to the jacket of the ATMFD unit. Chilled nitrogen gas is flowed through the bottom of the ATMFD unit to sublime the solvent(s) away from the drug (s) and fluidizing the solids. The ATMFD unit and the nitrogen gas temperature are slowly warmed to ambient temperature. After the ATMFD portion of the process was complete the solid was collected from either the cyclone or the ATMFD Unit. • Freeze Drying. Freeze drying was an alternative solvent removal method used in some of the following examples. The frozen solution that was prepared was transferred to ajar cooled with dry ice. The processed solid in the chilled container was placed on a Virtis freeze dryer and dried for app. 12-24 hr at approximately 100 mtorr vacuum.

A short description of data set [2]: Particle size analysis (Beckman Coulter Counter) after redispersion in water. The format is physicochemical. Conditions: bulk drug powder as received, redispersed in water. The procedure:
as §1

[3] abbreviates: deionized water containing 10.0 wt. % sodium chloride.

Several values for one entry are separate records, joined by “and”; a condition that tells them apart may be missing. Identical values can stand only once.

Turning to `CC(=O)N1CCN(c2ccc(OCC3COC(Cn4ccnc4)(c4ccc(Cl)cc4Cl)O3)cc2)CC1` (stereo not shown) [Ketoconazole], the “Dissolution of bulk drug after 2 minutes” value in data set [1] (deionized water containing 0.5 wt. % SLS) is 26.1 wt % and 26.10 wt %. Further, the “PSA of bulk drug” value in data set [2] was 13.5 microns and 13.50 microns.
In the case of `CC(=O)OCC(=O)[C@@]1(O)CC[C@H]2[C@@H]3CCC4=CC(=O)CC[C@]4(C)[C@H]3[C@@H](O)C[C@@]21C` [Hydrocortisone Acetate], the “Dissolution of bulk drug after 2 minutes” value in data set [1] (deionized water containing 0.3 wt. % SDS) is 21.16 wt %. Besides, the “PSA of bulk drug” value in data set [2] is 17.07 microns.
Consider `C#C[C@]1(O)CC[C@H]2[C@@H]3CCC4=Cc5oncc5C[C@]4(C)[C@H]3CC[C@@]21C` [Danazol], for which the “Dissolution of bulk drug after 2 minutes” value in data set [1] (deionized water, 0.75 wt. % SLS, 1.21 wt. % Tris, pH 9) worked out at 56.42 wt %. Moreover, the “PSA of bulk drug” value in data set [2] is 24.86 microns.
For the compound `CC(C(=O)O)c1cccc(C(=O)c2ccccc2)c1` (stereo not shown) [Ketoprofen], the “PSA of bulk drug” value in data set [2] was found to be 42.73 microns.
Turning to `CC1(C)O[C@@H]2C[C@H]3[C@@H]4CCC5=CC(=O)C=C[C@]5(C)[C@@]4(F)[C@@H](O)C[C@]3(C)[C@]2(C(=O)CO)O1` [Triamcinalone Acetonide], the “Dissolution of bulk drug after 2 minutes” value in data set [1] (setting [3]) is 5.38 wt %. The “PSA of bulk drug” value in data set [2] is 7.707 microns.
As for `C[C@]12C=CC(=O)C=C1CC[C@@H]1[C@@H]2C(=O)C[C@@]2(C)[C@H]1CC[C@]2(O)C(=O)CO` [Prednisone], in data set [1] (setting [3]), the “Dissolution of bulk drug after 2 minutes” value is reported as 0.97 wt %. The “PSA of bulk drug” value in data set [2] was 3.263 microns.
Turning to `NC(=O)N1c2ccccc2C=Cc2ccccc21` [Carbamazepine], the “Dissolution of bulk drug after 2 minutes” value in data set [1] (deionized water containing 5.0 wt. % sodium chloride) was 4.83 wt %. Moreover, the “PSA of bulk drug” value in data set [2] turned out to be 391.4 microns.

The values above are taken from patent US9175906B2, “Drug particles from freezing onto a surface” (BOARD OF REGENTS, THE UNIVERSITY OF TEXAS SYSTEM, priority 2003, dated 2015).
